Data reported in patent US7094524B2, “Thermally development imaging materials having backside stabilizers” (Eastman Kodak Company, priority 2003, dated 2006).

Assay: pH of 0.005 molar solution in 15% methanol/85% water
Assay type: physicochemical
Description: TABLE I also includes vapor pressure (VP) and pKa values for the various backside stabilizers.

| Structure (SMILES) | pH |
| --- | --- |
| C1CNCCN1 [AB-1] | 10.4 |
| C1CN2CCN1CC2 [AB-2] | 9.8 |
| CN(C)C(=N)N(C)C [AB-3] | 11.8 |
| OCCN(CCO)CCO [AB-5] | 9.1 |
| C1CCC2=NCCCN2CC1 [AB-6, 1,8-diazabicyclo[5.4.0]undec-7-ene] | 11.8 |
| c1ccc(Nc2ccccn2)nc1 [AB-7] | 8.5 |
| N=C(Nc1ccccc1)Nc1ccccc1 [AB-8] | 10.6 |
| c1ccc(CN(Cc2ccccc2)Cc2ccccc2)cc1 [AB-9] | 8.6 |
